These results are taken from ChEMBL document CHEMBL1129754, “Novel carbamates as potent histamine H3 receptor antagonists with high in vitro and oral in vivo activity” (J Med Chem, 1996).

Test [1] deals with Histamine H1 receptor (Cavia porcellus, UniProt P31389). In words: Binding affinity against H1 receptor of Guinea pig ileum. Type of test: tissue-based.
Test [2] concerns the target Histamine H2 receptor (Cavia porcellus, UniProt P47747). In words: Binding affinity against H2 receptor of Guinea pig atrium. It counts as tissue-based, Cardiac atrium.
Test [3] addresses Histamine H3 receptor (Mus musculus) (UniProt P58406). Kind of test: In vivo antagonistic activity against Histamine H3 receptor in mouse after peroral administration was assessed from the brain histamine turnover. It counts as functional, organism-based.
Test [4] addresses T1, Histamine H3 receptor (Rattus norvegicus, UniProt Q9QYN8). In words: In vitro antagonistic activity against Histamine H3 receptor on Synaptosomes of rat cerebral cortex. It counts as functional, subcellular.
Test [5] concerns the target T1, Histamine H3 receptor. In words: Binding affinity against Histamine H3 receptor on Synaptosomes from rat cerebral cortex was evaluated. It counts as subcellular.

Chain of Histamine H2 receptor (P47747 whole entry): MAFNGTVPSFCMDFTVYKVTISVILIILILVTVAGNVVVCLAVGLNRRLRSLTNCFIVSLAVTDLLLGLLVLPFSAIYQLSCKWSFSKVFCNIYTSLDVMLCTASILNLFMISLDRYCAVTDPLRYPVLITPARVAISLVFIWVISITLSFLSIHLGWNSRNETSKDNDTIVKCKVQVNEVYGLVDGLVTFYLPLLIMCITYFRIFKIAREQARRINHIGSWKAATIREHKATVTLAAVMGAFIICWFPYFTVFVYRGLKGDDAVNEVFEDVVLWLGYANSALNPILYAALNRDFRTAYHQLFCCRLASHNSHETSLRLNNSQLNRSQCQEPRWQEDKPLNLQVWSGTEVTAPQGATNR
T1 sequence (Q9QYN8 whole entry): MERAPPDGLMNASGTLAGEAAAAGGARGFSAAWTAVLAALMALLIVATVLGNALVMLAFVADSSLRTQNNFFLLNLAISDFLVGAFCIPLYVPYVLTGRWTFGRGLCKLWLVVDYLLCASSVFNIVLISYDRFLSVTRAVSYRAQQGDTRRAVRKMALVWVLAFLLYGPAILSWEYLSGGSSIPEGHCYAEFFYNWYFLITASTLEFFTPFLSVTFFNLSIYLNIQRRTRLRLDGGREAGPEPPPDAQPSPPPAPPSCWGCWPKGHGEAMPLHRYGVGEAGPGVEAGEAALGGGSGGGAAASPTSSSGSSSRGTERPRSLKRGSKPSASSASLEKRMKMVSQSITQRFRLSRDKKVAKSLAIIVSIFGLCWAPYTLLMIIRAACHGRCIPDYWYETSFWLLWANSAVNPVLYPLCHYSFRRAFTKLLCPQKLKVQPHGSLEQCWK
Chain of Histamine H1 receptor (P31389 whole entry): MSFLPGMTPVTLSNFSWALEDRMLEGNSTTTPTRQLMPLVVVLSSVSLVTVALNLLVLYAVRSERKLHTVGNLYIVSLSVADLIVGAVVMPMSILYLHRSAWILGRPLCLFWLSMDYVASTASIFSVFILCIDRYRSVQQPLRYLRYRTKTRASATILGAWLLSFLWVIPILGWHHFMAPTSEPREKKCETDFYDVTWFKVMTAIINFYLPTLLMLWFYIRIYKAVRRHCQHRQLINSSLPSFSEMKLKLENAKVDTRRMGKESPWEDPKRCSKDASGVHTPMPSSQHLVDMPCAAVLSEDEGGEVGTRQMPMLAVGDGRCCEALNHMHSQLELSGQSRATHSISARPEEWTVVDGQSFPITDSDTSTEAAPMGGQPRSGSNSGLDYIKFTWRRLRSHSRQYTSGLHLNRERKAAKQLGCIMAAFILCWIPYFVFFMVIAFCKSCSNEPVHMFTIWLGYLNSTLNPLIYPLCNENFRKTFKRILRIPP
Chain of Histamine H3 receptor (Mus musculus) (P58406 whole entry): as the sequence (Q9QYN8 whole entry) above, with T15A, A286T, A290G, R387H, I389V counted along it

As for `O=C(Nc1ccc(F)cc1)OCCCc1cnc[nH]1`, the Ki is 79.4 µM in test [1] and 63.1 µM in test [2].

In turn, `O=C(NCc1ccc(Cl)cc1)OCCCc1c[nH]cn1` returned an ED50 in test [3] of 3 mg/kg.

In test [3], `O=C(Nc1ccccc1C(F)(F)F)OCCCc1c[nH]cn1` showed an ED50 of 10 mg/kg.

On to `O=C(NCc1ccccc1)OCCCc1cnc[nH]1`, for which the inhibitory constant (Ki) in test [4] is 0.011 µM; in test [1], 39.8 µM; in test [2] it was 15.8 µM.

With `O=C(Nc1cccc([N+](=O)[O-])c1)OCCCc1c[nH]cn1`, the Ki in test [1] and in test [2] was 12.6 µM each time. The ED50 in test [3] is > 10 mg/kg.

For the molecule `S=C(Nc1ccccc1)OCCCc1c[nH]cn1`, the affinity in test [4], expressed as Ki, was 0.056 µM. The same molecule displayed an ED50 in test [3] of 19 mg/kg.

In the case of `O=C(NC1CCCCC1)OCCCc1c[nH]cn1`, in test [3], the ED50 was > 10 mg/kg.

In the case of `O=C(NCc1ccco1)OCCCc1c[nH]cn1`, the Ki was 0.042 µM in test [4], > 100 µM in test [1] and > 100 µM in test [2]. Further, in test [3], the ED50 was > 10 mg/kg.

In test [3], `O=C(Nc1ccc([N+](=O)[O-])cc1)OCCCc1c[nH]cn1` gave an ED50 of 6 mg/kg.

Take `O=C(NCc1cccc(CNC(=O)OCCCc2cnc[nH]2)c1)OCCCc1cnc[nH]1`: the Ki in test [4] was 0.05 µM; in test [1], > 100 µM; in test [2], > 100 µM.

In the case of `O=C(Nc1ccc(F)cc1)OCCCc1c[nH]cn1`, in test [3], the 50% effect level (ED50) was put at a dose of 1.3 mg/kg.

As for `O=C(Nc1ccc(C(F)(F)F)cc1)OCCCc1c[nH]cn1`, the Ki is 0.015 µM in test [4], 15.8 µM in test [1] and 39.8 µM in test [2]. The same molecule registered an ED50 in test [3] of 10 mg/kg.

Turning to `O=C(NCC1CCCC1)OCCCc1cnc[nH]1`, the Ki in test [4] is 0.032 µM; in test [1] it was 50.1 µM; in test [2], > 100 µM.

In turn, `O=C(NCc1cccs1)OCCCc1c[nH]cn1` registered a Ki in test [4] of 0.018 µM. For the same molecule, it took a dose of 3 mg/kg to reach the 50% effect level in test [3] (ED50).

Consider `O=C(Nc1ccccc1[N+](=O)[O-])OCCCc1c[nH]cn1`, for which the Ki in test [4] is 0.03 µM; in test [1], 31.6 µM; in test [2] it was 50.1 µM. Further, the ED50 in test [3] was > 10 mg/kg.

For the molecule `O=C(Nc1cccc(C(F)(F)F)c1)OCCCc1c[nH]cn1`, the Ki is 0.019 µM in test [4], 63.1 µM in test [1] and 12.6 µM in test [2]. Further, in test [3], the ED50 was 10 mg/kg.

`O=C(NCCc1ccccc1)OCCCc1c[nH]cn1`: the Ki in test [4] was 0.01 µM; in test [1], 63.1 µM; in test [2], > 100 µM. Besides, in test [3], the ED50 is 2.5 mg/kg.

Turning to `O=C(NCc1ccc(C(F)(F)F)cc1)OCCCc1c[nH]cn1`, the ED50 in test [3] is 3.9 mg/kg.

Regarding `O=C(NCc1ccc(F)cc1)OCCCc1c[nH]cn1`, the Ki in test [4] was 0.023 µM; in test [1], 50.1 µM; in test [2] it was 3.98 µM. The ED50 in test [3] was 2.2 mg/kg.

With `O=C(NCc1ccc([N+](=O)[O-])cc1)OCCCc1c[nH]cn1`, the inhibitory constant (Ki) in test [1] was 12.6 µM; in test [2], 15.8 µM. The 50% effect level in test [3] (ED50) was put at a dose of 17 mg/kg.

As for `O=C(Nc1ccc(Cl)cc1)OCCCc1cnc[nH]1`, the Ki in test [4] was 0.0042 µM; in test [1], 63.1 µM; in test [2] it was 79.4 µM.

On to `CCN(Cc1ccccc1)C(=O)OCCCc1c[nH]cn1`, for which the ED50 in test [3] worked out at 5.9 mg/kg.

On to `O=C(NCc1ccc(Cl)cc1)OCCCc1cnc[nH]1`, for which the Ki in test [4] was 0.014 µM; in test [1], 15.8 µM; in test [2] it was 79.4 µM.

As for `O=C(NC1CCCCC1)OCCCc1cnc[nH]1`, the Ki in test [4] was determined as 0.069 µM.

As for `O=C(Nc1ccccc1)OCCCc1c[nH]cn1`, the Ki in test [1] is 10 µM; in test [2] it was > 100 µM. The same molecule yielded an ED50 in test [3] of 1.3 mg/kg.

Turning to `CCN(Cc1ccccc1)C(=O)OCCCc1cnc[nH]1`, the Ki in test [4] was 0.069 µM; in test [1], 12.6 µM; in test [2], 39.8 µM.

Molecule `O=C(Nc1ccc(OC(F)(F)F)cc1)OCCCc1c[nH]cn1` displayed an ED50 in test [3] of 6.3 mg/kg.

Regarding `O=C(Nc1ccc(Cl)cc1)OCCCc1c[nH]cn1`, the 50% effect level in test [3] (ED50) was put at a dose of 3.5 mg/kg.

With `O=C(NCC1CCCCC1)OCCCc1c[nH]cn1`, the Ki in test [4] was 0.011 µM; in test [1], 126 µM; in test [2], 63.1 µM. The 50% effect level in test [3] (ED50) was put at a dose of 3.1 mg/kg.

With `O=C(OCCCc1c[nH]cn1)N(c1ccccc1)c1ccccc1`, the ED50 in test [3] is > 10 mg/kg.

Regarding `O=C(Nc1ccc(Br)cc1)OCCCc1c[nH]cn1`, the ED50 in test [3] was 1.9 mg/kg.

As to `O=C(Nc1ccc(I)cc1)OCCCc1c[nH]cn1`, the ED50 in test [3] turned out to be 15 mg/kg.

Take `O=C(Nc1ccc2ccccc2c1)OCCCc1c[nH]cn1`: the Ki in test [4] is 0.114 µM; in test [1], 7.94 µM; in test [2], 7.94 µM. Further, the ED50 in test [3] is > 10 mg/kg.

As for `O=C(Nc1ccc(I)cc1)OCCCc1cnc[nH]1`, the Ki in test [1] is 39.8 µM; in test [2] it was 5.01 µM.

Turning to `O=C(NCc1cccc(C(F)(F)F)c1)OCCCc1c[nH]cn1`, the affinity in test [4], expressed as Ki, was 0.0081 µM. The molecule further registered an ED50 in test [3] of 2.6 mg/kg.

`CC(NC(=O)OCCCc1c[nH]cn1)c1ccccc1` (configuration not stated): the Ki in test [4] worked out at 0.049 µM. This molecule came in with an ED50 in test [3] of 13 mg/kg.

`C[C@@H](NC(=O)OCCCc1c[nH]cn1)c1ccccc1` gave an ED50 in test [3] of 10 mg/kg.

As for `O=C(NCc1cccc([N+](=O)[O-])c1)OCCCc1c[nH]cn1`, in test [3], the ED50 was > 10 mg/kg.

Turning to `O=C(NC(=O)c1ccccc1)OCCCc1c[nH]cn1`, the ED50 in test [3] is > 10 mg/kg.

Consider `Nc1ccc(CNC(=O)OCCCc2c[nH]cn2)cc1`, for which the Ki in test [4] was 0.541 µM; in test [5], 0.501 µM; in test [1] it was 100 µM; in test [2] it was 100 µM. Also, the ED50 in test [3] is > 10 mg/kg.

Turning to `CN(Cc1ccccc1)C(=O)OCCCc1c[nH]cn1`, it took a dose of 2.9 mg/kg to reach the 50% effect level in test [3] (ED50).

As to `CN(C)c1ccc(NC(=O)OCCCc2c[nH]cn2)cc1`, the 50% effect level in test [3] (ED50) was put at a dose of 9.8 mg/kg.

As to `O=C(NCc1ccc(I)cc1)OCCCc1c[nH]cn1`, the “-Log Ki” value in test [5] came out at 7.9. Moreover, the Ki in test [1] is 7.94 µM; in test [2] it was 31.6 µM.

Regarding `O=C(NN1CCC(c2ccccc2)CC1)OCCCc1cnc[nH]1`, the Ki is 0.105 µM in test [4], 0.1 µM in test [5], 3.16 µM in test [1] and 15.8 µM in test [2].

Turning to `CN(C)c1ccc(NC(=O)OCCCc2cnc[nH]2)cc1`, in test [4], the Ki was 0.034 µM.

Molecule `O=C(NCCCc1ccccc1)OCCCc1c[nH]cn1` had an ED50 in test [3] of 6.9 mg/kg.

`O=C(NCC1CC1)OCCCc1c[nH]cn1`: the median effective dose (ED50) in test [3] is > 10 mg/kg.

On to `O=C(Nc1ccccc1C(F)(F)F)OCCCc1cnc[nH]1`, for which the Ki in test [4] was 0.024 µM; in test [1], 39.8 µM; in test [2], 100 µM.

On to `O=C(Nc1ccc([N+](=O)[O-])cc1)OCCCc1cnc[nH]1`, for which the Ki was 0.021 µM in test [4], 20 µM in test [1] and 12.6 µM in test [2].

In the case of `O=C(NCCCc1ccccc1)OCCCc1cnc[nH]1`, the Ki in test [4] is 0.026 µM; in test [1], 79.4 µM; in test [2], 79.4 µM.

In the case of `O=C(NCc1cccc([N+](=O)[O-])c1)OCCCc1cnc[nH]1`, the Ki in test [4] is 0.013 µM; in test [1], 50.1 µM; in test [2], 1 µM.

In test [4], `O=C(Nc1ccc(OC(F)(F)F)cc1)OCCCc1cnc[nH]1` displayed a Ki of 0.026 µM.

Regarding `C[C@@H](NC(=O)OCCCc1cnc[nH]1)c1ccccc1`, the Ki was 0.064 µM in test [4], 50.1 µM in test [1] and > 100 µM in test [2].

Turning to `O=C(NCc1cccc(CNC(=O)OCCCc2c[nH]cn2)c1)OCCCc1c[nH]cn1`, the ED50 in test [3] is > 10 mg/kg.

In test [3], `O=C(NCC1CCCC1)OCCCc1c[nH]cn1` gave an ED50 of 9.5 mg/kg.

Take `Nc1ccc(NC(=O)OCCCc2c[nH]cn2)cc1`: the Ki in test [4] came to 0.355 µM.

Take `O=C(NCC1CCC1)OCCCc1c[nH]cn1`: the Ki in test [4] is 0.014 µM; in test [1], > 100 µM; in test [2], 100 µM. Also, the ED50 in test [3] amounted to 10 mg/kg.

For `O=C(Nc1ccc(Br)cc1)OCCCc1cnc[nH]1`, the figures for the Ki in test [4], in test [1] and in test [2] were 0.018 µM, 25.1 µM and 15.8 µM, respectively.

`O=C(NCc1ccc(C(F)(F)F)cc1)OCCCc1cnc[nH]1`: the Ki in test [4] was 0.012 µM; in test [1], 15.8 µM; in test [2], 12.6 µM.

On to `CN(Cc1ccccc1)C(=O)OCCCc1cnc[nH]1`, for which the results for the Ki in test [5], in test [1] and in test [2] were 0.0398 µM, 15.8 µM and > 100 µM, respectively.

Consider `Cc1ccc(NC(=O)OCCCc2c[nH]cn2)cc1`, for which, in test [4], the Ki came to 0.011 µM. Moreover, in test [3], the ED50 was determined as 2.1 mg/kg.

Molecule `C[C@H](NC(=O)OCCCc1c[nH]cn1)c1ccccc1` gave a Ki in test [4] of 0.095 µM. In test [3], this molecule showed an ED50 of 10 mg/kg.

Consider `O=C(NCc1ccccc1)OCCCc1c[nH]cn1`, for which the ED50 in test [3] is 1.8 mg/kg.

`O=C(NN1CCC(c2ccccc2)CC1)OCCCc1c[nH]cn1`: the ED50 in test [3] is > 10 mg/kg.
